According to patent US12616687B2, “Treatment of viral infection, disease or disorder using a selective sir agonist” (Prilenia Neurotherapeutics Ltd., priority 2020, dated 2026):
“And” between values parts separate entries of the source, which are not always exact repeats. Equal entries are not always repeated. “Also recorded” adds a separate entry of the source. Where two headings read alike, the source gives them in different places.

Key:
[1] = system: YAC128 HD striatal neurons; assay: mitochondrial ROS (H2O2, MitoPY1) in YAC128 HD striatal neurons; type: cell-based, mouse; conditions: Ant A 2 μM
Description: YAC128 is a mouse model of Huntington's Disease (HD), Striatal neurons from wt or YAC128 were treated or not with 1 μM pridopidine and incubated with MitoPY1 fluorescence probe. The mitochondrial respiration inhibitor Antimycin A (Ant A, 2 μM) was used to induce release of Mitochondrial H2O2 and oxidative stress. Mitochondrial H2O2 was recorded in spinning disk confocal before and after administration of Ant A (n=4, considering ˜20 cells/condition).
Striatal neurons from YAC128 HD mice were treated with 1 μM pridopidine prior to induction of ROS production by the mitochondrial respiration inhibitor antimycin A (Ant A).

[2] = at the concentration showing anti-viral activity; cited from earlier work
[3] = system: lymphoblasts from HD patients; assay: mitochondrial membrane potential (TMRE) in control and S1R-KD HD lymphoblasts; type: cell-based, human
Description: Cells were treated with pridopidine 5 μM, then challenged with 0.1 mM H2O2.

SARS-CoV-2 = conditions: viral titer assay; cited from earlier work
S1R [4] = molecular target: T1, S1R (Homo sapiens, UniProt Q99720); conditions: cited from earlier work
T1 sequence (Q99720 whole entry): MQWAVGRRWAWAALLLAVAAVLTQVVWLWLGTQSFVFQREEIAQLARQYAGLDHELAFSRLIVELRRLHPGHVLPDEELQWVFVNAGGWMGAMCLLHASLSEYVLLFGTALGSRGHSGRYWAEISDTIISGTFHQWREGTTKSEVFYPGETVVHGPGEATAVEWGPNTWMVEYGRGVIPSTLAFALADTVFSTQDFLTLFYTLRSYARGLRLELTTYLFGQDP

S2R = S2R (Homo sapiens, UniProt Q5BJF2); conditions: cited from earlier work
S2R, sequence (Q5BJF2 whole entry): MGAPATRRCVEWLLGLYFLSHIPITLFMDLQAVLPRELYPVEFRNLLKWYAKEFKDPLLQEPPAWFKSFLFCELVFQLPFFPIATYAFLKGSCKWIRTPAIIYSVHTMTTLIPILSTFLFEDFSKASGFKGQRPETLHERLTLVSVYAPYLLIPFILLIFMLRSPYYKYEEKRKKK

ATF6 = conditions: myc-Htt96Q cells
Description: Cells expressing myc-Htt96Q (mutant Htt) were treated with pridopidine 0.03 and 3 μM. Immunoblots were reacted with anti-ATF6 quantified and normalized with anti-tubulin as loading controls.

eIF2α-phosphorylation = assay: eIF2α-phosphorylation, ER stress induced by thapsigargin; type: cell-based; conditions: 2 μg/ml thapsigargin
Description: HEK293 cells transfected with Htt20Q-mCherry (wt HTT) were treated with 2 μg/ml thapsigargin to induce ER stress.

S1R [5] = molecular target: T1, S1R
[6] = system: interferon-stimulated genes (ISGs)
ATF4 = system: ATF4
Description: (§1) Cells expressing myc-Htt96Q (mutant Htt) or myc-Htt20Q (wt Htt) were treated with pridopidine 3 uM. Immunoblots were reacted with anti-ATF4 (FIG. 7A), anti-CHOP (FIG. 7B) and anti-GADD34 (FIG. 7C), quantified and normalized with anti-actin or anti-tubulin as loading controls.

CHOP = system: CHOP
Description: as §1

GADD34 = system: GADD34
Description: as §1

XBP1s = conditions: myc-Htt96Q cells, 3 μM (p<0.01)
[7] = system: Striatal WT and YAC128 (HD) neurons; conditions: 24 h; for mitochondrial membrane potential (MMP) in HD (YAC128) neurons: 0.1 and 1 μM
Description: The role of S1R in regulating mitochondrial membrane potential (MMP) was studied in striatal neurons from wild-type (WT) control and YAC128 HD mice.

[8] = pridopidine 5 μM, 24 h, 0.1 mM H2O2
[9] = HEK293, Htt96Q-induced ER stress

CCCCCC[C@H]1C(=O)O[C@H](C)[C@H](NC(=O)c2cccc(NC=O)c2O)C(=O)O[C@@H](C)[C@@H]1OC(=O)CC(C)C [Ant A, Antimycin A, reference compound]
increase of mitochondrial H2O2 / ROS production ([1]; untreated YAC128 neurons): ~2 fold

CN1CCC[C@@H]1CCO[C@](C)(c1ccccc1)c1ccc(Cl)cc1 [Clemastine]
reduction in cell viability / cell death [2]: ~40%

OO [Compound H2O2, H2O2, reference compound]
reduction of MMP in S1R+/+ cells ([3]; 0.1 mM H2O2, HD lymphoblasts): 25%
reduction of MMP in S1R KD cells ([3]; 0.1 mM H2O2, HD lymphoblasts, S1R knocked down ~83%): 75%

O=C(CCCN1CCC(O)(c2ccc(Cl)cc2)CC1)c1ccc(F)cc1 [Haloperidol]
reduction in cell viability / cell death [2]: ~30%

CCN(CCO)CCCC(C)Nc1ccnc2cc(Cl)ccc12 (stereo not drawn) [hydroxychloroquine]
concentration at which anti-viral activity was demonstrated (SARS-CoV-2): ~2 µM
Ki (S1R [4]): 200 nM
reduction in cell viability / cell death [2]: ~30%
Ki (S2R): 800 nM

CCCN1CCC(c2cccc(S(C)(=O)=O)c2)CC1 [pridopidine, 4-[3-(methylsulfonyl)phenyl]-1-propyl-piperidine]
reduction of ATF6 (ATF6; 0.03 μM): ~10%
reduction of ATF6 (ATF6; 3 μM): 35% and ~30%
eIF2α-p (ratio of eIF2α-P/eIF2α) (eIF2α-phosphorylation; HEK293, wt HTT, pridopidine 3 μM, 8 hours): caused a reduction; also recorded: reduces p-eIF2α levels
mitochondrial ROS (H2O2) production after Ant A ([1]; YAC128 striatal neurons, pridopidine 1 μM): robust and significant reduction of ROS production by mitochondria back to normal levels; also recorded: inhibits H2O2 release and oxidative stress
fold higher affinity for the S1R vs the S2R (S1R [5]): 95 fold
reduction of expression of ISGs (IFIT1, EIF2AK2, IRF7 indexed together) [6]: 30-50%
MMP after H2O2 challenge in S1R KD cells [3, 8]: abolished and not
MMP after H2O2 challenge in S1R+/+ cells [3, 8]: completely restored
ATF4 protein level after treatment (ATF4; [9]): normal wt levels
reduction of ATF4 levels (ATF4; myc-Htt96Q cells, 3 μM (p<0.05)): ~4.5 fold
CHOP protein level after treatment (CHOP; [9]): normal wt levels
reduction of CHOP levels (CHOP; myc-Htt96Q cells, 3 μM): ~2 fold
GADD-34 protein level after treatment (GADD34; [9]): normal wt levels
reduction of GADD-34 levels (GADD34; myc-Htt96Q cells, 3 μM (p<0.01)): ~2.5 fold
reduction in XBP1s mRNA levels (XBP1s): 25%
mitochondrial membrane potential (MMP) in WT neurons ([7]; 0.1 μM): trend towards increasing MMP
mitochondrial membrane potential (MMP) in WT neurons ([7]; 1 μM): significant increase
mitochondrial membrane potential (MMP) in HD (YAC128) neurons [7]: significant increase
mitochondrial membrane potential (MMP) in HD (YAC128) neurons ([7]; listed as Pridopidine): significantly restores the impaired MMP
mitochondrial membrane potential (MMP) in wt neurons ([7]; concentration not stated (FIG. 11 legend)): enhances MMP

C/C=C(/C)C(=O)O[C@H]1C(C)=C2[C@H]([C@@H]1OC(=O)CCCCCCC)[C@@](C)(OC(C)=O)C[C@H](OC(=O)CCC)[C@@]1(O)[C@H]2OC(=O)[C@@]1(C)O [thapsigargin, reference compound]
increase in phosphorylated eIF2α (eIF2α-p) (eIF2α-phosphorylation; HEK293, myc-Htt20Q): 70%
